According to patent publication EP4796557A1, “POLYPEPTIDE, BIOACTIVE CONJUGATE, AND PREPARATION METHOD THEREFOR AND USE THEREOF” (priority 2023, dated 2025):
Numbered stars: 1 amine (or outer) side, 2 acyl side, 3 side chain; on linkers, the order of the positions; unused ones are H or OH. Square brackets hold non-standard residues; d marks the D form. Peptide text beside a SMILES is read from it. * marks the point of attachment. Exatecan = CC[C@@]1(O)C(=O)OCc2c1cc1n(c2=O)Cc2c-1nc1cc(F)c(C)c3c1c2[C@@H](N*)CC3; Hexanoyl(6-maleimido) = O=C1C=CC(=O)N1CCCCCC(=O)*; PABC = O=C(OCc1ccc(N[*:1])cc1)[*:2]; Cit = NC(=O)NCCC[C@H](N)C(=O)O

What was measured:
MMP2 = biological target: T1, MMP2 (Homo sapiens, UniProt P08253); experiment: Enzymolysis assay of the linker-payload by MMP2 (LC-MS); format: biochemical; settings: linker-payload 100 µmol, activated MMP2 1 µg/mL, 37°C, 24 h
T1 sequence (P08253 110-660): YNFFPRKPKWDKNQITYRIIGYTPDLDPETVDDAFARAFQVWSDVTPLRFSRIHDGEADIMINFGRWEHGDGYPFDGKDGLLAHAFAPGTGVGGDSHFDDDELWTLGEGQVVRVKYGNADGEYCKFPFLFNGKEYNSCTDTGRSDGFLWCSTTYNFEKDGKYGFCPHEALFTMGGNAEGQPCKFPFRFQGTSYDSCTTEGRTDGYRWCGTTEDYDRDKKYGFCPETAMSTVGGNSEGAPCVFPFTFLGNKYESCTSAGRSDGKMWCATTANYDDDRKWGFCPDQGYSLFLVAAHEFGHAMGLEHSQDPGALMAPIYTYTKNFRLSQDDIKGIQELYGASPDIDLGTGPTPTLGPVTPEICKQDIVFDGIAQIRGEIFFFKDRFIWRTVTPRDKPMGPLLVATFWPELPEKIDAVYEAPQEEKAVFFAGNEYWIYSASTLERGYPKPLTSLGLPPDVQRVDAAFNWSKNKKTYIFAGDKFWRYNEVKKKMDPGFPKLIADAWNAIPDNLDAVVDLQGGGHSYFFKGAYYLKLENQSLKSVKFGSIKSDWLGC
Experimental: MMP2 having a final concentration of 200 µg/mL was mixed with 4 mM APMA at a ratio of 1:1 and placed in a 37°C water bath and incubated for 24 h to activate the MMP2 enzyme solution. Subsequently, the linker-payload having a final concentration of 100 µmol was incubated with the activated MMP2 solution having a final concentration of 1 µg/mL in a 37°C water bath for 24 h. After the reaction was complete, LC-MS analysis was performed.

MMP9 = MMP9 (Homo sapiens, UniProt P14780); experiment: Enzymolysis assay of the linker-payload by MMP9 (LC-MS); format: biochemical; settings: linker-payload 100 µmol, activated MMP9 0.2 µg/mL, 37°C, 24 h
Experimental: MMP9 having a final concentration of 200 µg/mL was mixed with 4 mM APMA at a ratio of 1:1 and placed in a 37°C water bath and incubated for 24 h to activate the MMP9 enzyme solution. Subsequently, the linker-payload having a final concentration of 100 µmol was incubated with the activated MMP9 solution having a final concentration of 0.2 µg/mL in a 37°C water bath for 24 h. After the reaction was complete, LC-MS analysis was performed.

[1] = background statement; cited from earlier work

MMP9, sequence (P14780 107-707 limits assumed, species assumed): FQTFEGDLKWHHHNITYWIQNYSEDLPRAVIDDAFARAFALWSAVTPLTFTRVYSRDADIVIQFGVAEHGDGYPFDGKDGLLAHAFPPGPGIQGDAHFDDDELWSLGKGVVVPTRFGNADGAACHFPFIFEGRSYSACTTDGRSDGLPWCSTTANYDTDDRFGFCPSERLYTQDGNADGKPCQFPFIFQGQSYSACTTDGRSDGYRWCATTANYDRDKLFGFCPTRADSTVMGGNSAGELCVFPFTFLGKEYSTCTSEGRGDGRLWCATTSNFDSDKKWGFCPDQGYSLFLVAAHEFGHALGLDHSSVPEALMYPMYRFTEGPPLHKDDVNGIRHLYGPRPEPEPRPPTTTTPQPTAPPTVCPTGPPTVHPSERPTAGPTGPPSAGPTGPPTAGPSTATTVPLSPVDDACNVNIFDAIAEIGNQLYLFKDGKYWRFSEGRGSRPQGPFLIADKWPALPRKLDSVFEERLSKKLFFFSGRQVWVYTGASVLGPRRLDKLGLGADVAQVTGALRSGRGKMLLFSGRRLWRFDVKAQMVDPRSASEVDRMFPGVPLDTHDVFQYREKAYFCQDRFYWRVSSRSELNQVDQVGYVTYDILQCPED

| Compound | MMP2 enzymolysis efficiency (%) (MMP2) | MMP9 enzymolysis efficiency (%) (MMP9) | half-life in plasma [1] |
| --- | --- | --- | --- |
| CC[C@@]1(O)C(=O)OCc2c1cc1n(c2=O)Cc2c-1nc1cc(F)c(C)c3c1c2[C@@H](NC(=O)OCc1ccc(NC(=O)[C@H](CCCNC(N)=O)NC(=O)[C@@H](NC(=O)[C@H](CC(C)C)NC(=O)[C@H](CC(N)=O)NC(=O)[C@H](CCCNC(N)=O)NC(=O)[C@@H]2CCCN2C(=O)CCCCCN2C(=O)C=CC2=O)C(C)C)cc1)CC3 [Compound L064-P005, MC-PCitNLVCit-PAB-DX8951] ({Hexanoyl(6-maleimido)}-P[Cit]NLV[Cit][PABC]-Exatecan) | 42.89% | 52.70% |  |
| CC[C@@]1(O)C(=O)OCc2c1cc1n(c2=O)Cc2c-1nc1cc(F)c(C)c3c1c2[C@@H](NC(=O)OCc1ccc(NC(=O)[C@H](CCCNC(N)=O)NC(=O)[C@@H](NC(=O)[C@H](CC(C)C)NC(=O)[C@H](CO)NC(=O)[C@H](C)NC(=O)[C@@H]2CCCN2C(=O)CCCCCN2C(=O)C=CC2=O)C(C)C)cc1)CC3 [Compound L065-P005, MC-PASLVCit-PAB-DX8951] ({Hexanoyl(6-maleimido)}-PASLV[Cit][PABC]-Exatecan) | 32.73% | 27.13% |  |
| Trodelvy |  |  | less than 24 hours |
